Assay results reported in PMC10907560, “Significant reduction of activity retention in the kidneys via optimized linker sequences in radiohybrid-based minigastrin analogs” (EJNMMI Research, 2024).
Where “and” joins values, the source holds several entries; their conditions need not be identical. Identical values can stand only once. Numbered stars: 1 amine (or outer) side, 2 acyl side, 3 side chain; on linkers, the order of the positions; unused ones are H or OH. Square brackets hold non-standard residues; d marks the D form. Peptide text beside a SMILES is read from it. * marks the point of attachment. Benzoyl(4-SiFtBu2) = CC(C)(C)[Si](F)(c1ccc(C(=O)*)cc1)C(C)(C)C; DOTA = O=C(O)CN1CCN(CC(=O)O)CCN(CC(=O)*)CCN(CC(=O)O)CC1; PEG12 = NCCOCCOCCOCCOCCOCCOCCOCCOCCOCCOCCOCCOCCC(=O)O; d(γGlu) = O=C(O)[C@@H](CCC(=O)[*:2])N[*:1]; PEG8 = NCCOCCOCCOCCOCCOCCOCCOCCOCCC(=O)O; 1Nal = N[C@@H](Cc1cccc2ccccc12)C(=O)O; PEG5 = NCCOCCOCCOCCOCCOCCC(=O)O; NMeNle = CCCC[C@H](NC)C(=O)O; PEG4 = NCCOCCOCCOCCOCCC(=O)O; dDap = NC[C@@H](N)C(=O)O

Columns and labels:
[1] = test system: AR42J tumor-bearing CB17-SCID mice; settings: 24 h p.i.; cited from earlier work
[2] = target: T1, Human serum albumin (HSA) (Homo sapiens, UniProt P02768); test: Human serum albumin binding via high performance affinity chromatography (HPAC); type: in vitro ADME; settings: Chiralpak HSA column
T1 construct: purchased Daicel, Tokyo, Japan H13H-2433
Procedure: Human serum albumin (HSA) binding was determined via high performance affinity chromatography (HPAC), according to previously published protocols. Human serum albumin interaction was calculated according to the retention time (n = 1) of our compounds on a Chiralpak HSA column in dependence of nine reference compounds with known HSA interaction.
Human serum albumin binding was determined via high performance affinity chromatography. Therefore, a Chiralpak HSA column (50 × 3 mm, 5 µm, H13H-2433, Daicel, Tokyo, Japan) was used at a constant flow rate of 0.5 ml/min at room temperature. Mobile phase A consisted of a freshly prepared aqueous solution of NH4OAc (pH = 6.9, 50 mM) and mobile phase B of isopropanol. Calibration of the column was performed daily prior to experiments, by determining the retention times of nine reference substances displaying a HSA binding from 13 to 99%. HPLC gradient for all compounds tested was 100% A (0 to 3 min), followed by 80% A (3 to 40 min). All substances tested, were dissolved in a mixture of A/B (0.5 mg/mL, 1:1, v/v). OriginPro 2016G software (Northampton, United States) was used for non-linear regression and data evaluation.

[3] = Lipophilicity, n-octanol/PBS distribution coefficient logD7.4; type: physicochemical; settings: 177Lu-labeled peptide; n-octanol/PBS (1/1), n ≥ 5
Procedure: For determination of lipophilicity, the respective ^177Lu-Labeled peptide precursor (~ 1 MBq, 10 µL in 0.04 M HCl) was added to a solution of n-octanol/PBS (1/1, v/v, 1 mL) and vigourously mixed for 3 min at room temperature (n ≥ 5). Afterwards both phases were seperated using a Biofuge 15 centrifuge (Heraus Sepatech GmbH, Osterode, Germany) at 9,000 rpm for 5 min. 200 µL aliquots of both layers were collected separately, measured in a γ-counter (Perkin Elmer, Waltham, MA, USA) and the logD7.4 value was obtained.

T1 sequence (P02768 25-609): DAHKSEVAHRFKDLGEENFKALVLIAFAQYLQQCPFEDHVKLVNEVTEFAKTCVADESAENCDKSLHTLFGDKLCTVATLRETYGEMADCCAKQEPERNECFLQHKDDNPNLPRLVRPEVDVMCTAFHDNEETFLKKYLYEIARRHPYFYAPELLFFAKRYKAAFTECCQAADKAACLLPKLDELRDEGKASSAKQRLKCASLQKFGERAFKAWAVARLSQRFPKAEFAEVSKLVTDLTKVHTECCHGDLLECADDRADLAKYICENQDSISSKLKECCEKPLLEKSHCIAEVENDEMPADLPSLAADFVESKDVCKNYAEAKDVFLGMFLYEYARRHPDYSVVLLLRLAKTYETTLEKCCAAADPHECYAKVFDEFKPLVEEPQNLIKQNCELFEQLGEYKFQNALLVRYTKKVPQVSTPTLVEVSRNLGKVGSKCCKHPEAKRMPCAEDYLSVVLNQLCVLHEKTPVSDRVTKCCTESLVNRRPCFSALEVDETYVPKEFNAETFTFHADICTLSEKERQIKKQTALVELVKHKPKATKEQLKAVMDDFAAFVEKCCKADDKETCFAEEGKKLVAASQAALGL

Compound	HSA binding ([2]; n = 1)	logD [3]	also measured
CCCC[C@H](NC(=O)[C@H](Cc1c[nH]c2ccccc12)NC(=O)CNC(=O)[C@H](Cc1ccc(O)cc1)NC(=O)[C@H](C)NC(=O)CC[C@@H](NC(=O)CC[C@@H](NC(=O)CC[C@@H](NC(=O)CC[C@@H](NC(=O)CC[C@@H](NC(=O)CC[C@@H](NC(=O)CC[C@@H](NC(=O)CC[C@@H](NC(=O)[C@@H](CNC(=O)c1ccc([Si](F)(C(C)(C)C)C(C)(C)C)cc1)NC(=O)CN1CCN(CC(=O)O)CCN(CC(=O)O)CCN(CC(=O)O)CC1)C(=O)O)C(=O)O)C(=O)O)C(=O)O)C(=O)O)C(=O)O)C(=O)O)C(=O)O)C(=O)N[C@@H](CC(=O)O)C(=O)N[C@@H](Cc1ccccc1)C(N)=O [[^177Lu]Lu-DOTA-rhCCK-18, DOTA-D-Dap(p-SiFA)-(D-γ-Glu)8-Ala-Tyr-Gly-Trp-Nle-Asp-Phe-NH2, metal not drawn]	–	–	activity levels in the bone [1]: 0.20 ± 0.03 %ID/g; activity levels in the liver [1]: 0.22 ± 0.01 %ID/g; activity levels in the spleen [1]: 0.34 ± 0.09 %ID/g; activity levels in the stomach [1]: 4.3 ± 1.1 %ID/g; activity levels in the tumor [1]: 25.4 ± 4.7 %ID/g; activity uptake in the kidneys [1]: 134 ± 18 %ID/g; tumor-to-kidney ratio [1]: 0.19 ± 0.01; HSA binding ([2]; n = 1, listed as [^natLu]Lu-DOTA-rhCCK-18): 87.1% and 87%
CCCC[C@@H](C(=O)N[C@@H](CC(=O)O)C(=O)N[C@@H](Cc1cccc2ccccc12)C(N)=O)N(C)C(=O)[C@H](Cc1c[nH]c2ccccc12)NC(=O)CCOCCOCCOCCOCCNC(=O)CC[C@@H](NC(=O)CCOCCOCCOCCOCCOCCNC(=O)[C@@H](CNC(=O)c1ccc([Si](F)(C(C)(C)C)C(C)(C)C)cc1)NC(=O)CN1CCN(CC(=O)O)CCN(CC(=O)O)CCN(CC(=O)O)CC1)C(=O)O [[^nat/177Lu]Lu-DOTA-rhCCK-67, DOTA-D-Dap(p-SiFA)-(PEG)4-B, metal not drawn] ({DOTA}-[dDap](Benzoyl(4-SiFtBu2))[PEG5][d(γGlu)][PEG4]W[NMeNle]D[1Nal]-NH2)	92.9%	-1.05 ± 0.09	–
DOTA-D-Glu-Ala-Tyr-Gly-Trp-(N-Me)Nle-Asp-1-Nal-NH2 [[^177Lu]Lu-DOTA-MGS5]	–	–	activity levels in the tumor [1]: 11.0 ± 1.2 %ID/g; kidney retention [1]: 1.3 ± 0.4 %ID/g; tumor-to-kidney ratio [1]: 9.4 ± 3.3; tumor-to-stomach ratio [1]: 4.4 ± 0.7
DOTA-(D-Glu)6-Ala-Tyr-Gly-Trp-Nle-Asp-Phe-NH2 [[^177Lu]Lu-DOTA-PP-F11N]	–	–	activity levels in the tumor [1]: 1.9 ± 0.8 %ID/g; kidney retention [1]: 3.1 ± 0.6 %ID/g
CCCC[C@@H](C(=O)N[C@@H](CC(=O)O)C(=O)N[C@@H](Cc1cccc2ccccc12)C(N)=O)N(C)C(=O)[C@H](Cc1c[nH]c2ccccc12)NC(=O)CCOCCOCCOCCOCCNC(=O)CC[C@@H](NC(=O)CCOCCOCCOCCOCCOCCOCCOCCOCCOCCOCCOCCOCCNC(=O)CC[C@@H](NC(=O)[C@@H](CNC(=O)c1ccc([Si](F)(C(C)(C)C)C(C)(C)C)cc1)NC(=O)CN1CCN(CC(=O)O)CCN(CC(=O)O)CCN(CC(=O)O)CC1)C(=O)O)C(=O)O [[^nat/177Lu]Lu-DOTA-rhCCK-76, DOTA-D-Dap(p-SiFA)-D-γ-Glu-(PEG)11-B, metal not drawn]	86.2%	-1.82 ± 0.09	–
CCCC[C@@H](C(=O)N[C@@H](CC(=O)O)C(=O)N[C@@H](Cc1cccc2ccccc12)C(N)=O)N(C)C(=O)[C@H](Cc1c[nH]c2ccccc12)NC(=O)CCOCCOCCOCCOCCNC(=O)CC[C@@H](NC(=O)CCOCCOCCOCCOCCOCCOCCOCCOCCOCCOCCOCCOCCNC(=O)CC[C@@H](NC(=O)[C@@H](CNC(=O)C[N+](C)(C)Cc1ccc([Si](F)(C(C)(C)C)C(C)(C)C)cc1)NC(=O)CN1CCN(CC(=O)O)CCN(CC(=O)O)CCN(CC(=O)O)CC1)C(=O)O)C(=O)O [[^nat/177Lu]Lu-DOTA-rhCCK-75, DOTA-D-Dap(SiFAlin)-D-γ-Glu-(PEG)11-B, metal not drawn]	90.9%	-1.15 ± 0.05	–
CCCC[C@@H](C(=O)N[C@@H](CC(=O)O)C(=O)N[C@@H](Cc1cccc2ccccc12)C(N)=O)N(C)C(=O)[C@H](Cc1c[nH]c2ccccc12)NC(=O)CCOCCOCCOCCOCCNC(=O)CC[C@@H](NC(=O)CCOCCOCCOCCOCCOCCOCCOCCOCCNC(=O)CC[C@@H](NC(=O)[C@@H](CNC(=O)C[N+](C)(C)Cc1ccc([Si](F)(C(C)(C)C)C(C)(C)C)cc1)NC(=O)CN1CCN(CC(=O)O)CCN(CC(=O)O)CCN(CC(=O)O)CC1)C(=O)O)C(=O)O [[^nat/177Lu]Lu-DOTA-rhCCK-71, DOTA-D-Dap(SiFAlin)-D-γ-Glu-(PEG)7-B, metal not drawn]	89.1%	-1.63 ± 0.06	–
CCCC[C@@H](C(=O)N[C@@H](CC(=O)O)C(=O)N[C@@H](Cc1cccc2ccccc12)C(N)=O)N(C)C(=O)[C@H](Cc1c[nH]c2ccccc12)NC(=O)CCOCCOCCOCCOCCNC(=O)CC[C@@H](NC(=O)CCOCCOCCOCCOCCOCCNC(=O)CC[C@@H](NC(=O)[C@@H](CNC(=O)c1ccc([Si](F)(C(C)(C)C)C(C)(C)C)cc1)NC(=O)CN1CCN(CC(=O)O)CCN(CC(=O)O)CCN(CC(=O)O)CC1)C(=O)O)C(=O)O [[^nat/177Lu]Lu-DOTA-rhCCK-68, DOTA-D-Dap(p-SiFA)-D-γ-Glu-(PEG)4-B, metal not drawn]	91.2%	-1.65 ± 0.09	–
CCCC[C@@H](C(=O)N[C@@H](CC(=O)O)C(=O)N[C@@H](Cc1cccc2ccccc12)C(N)=O)N(C)C(=O)[C@H](Cc1c[nH]c2ccccc12)NC(=O)CCOCCOCCOCCOCCNC(=O)CC[C@@H](NC(=O)CCOCCOCCOCCOCCOCCOCCOCCOCCOCCOCCOCCOCCNC(=O)[C@@H](CNC(=O)c1ccc([Si](F)(C(C)(C)C)C(C)(C)C)cc1)NC(=O)CN1CCN(CC(=O)O)CCN(CC(=O)O)CCN(CC(=O)O)CC1)C(=O)O [[^nat/177Lu]Lu-DOTA-rhCCK-74, DOTA-D-Dap(p-SiFA)-(PEG)11-B, metal not drawn] ({DOTA}-[dDap](Benzoyl(4-SiFtBu2))[PEG12][d(γGlu)][PEG4]W[NMeNle]D[1Nal]-NH2)	87.2%	-1.19 ± 0.07	–
CCCC[C@@H](C(=O)N[C@@H](CC(=O)O)C(=O)N[C@@H](Cc1cccc2ccccc12)C(N)=O)N(C)C(=O)[C@H](Cc1c[nH]c2ccccc12)NC(=O)CCOCCOCCOCCOCCNC(=O)CC[C@@H](NC(=O)CCOCCOCCOCCOCCOCCOCCOCCOCCNC(=O)CC[C@@H](NC(=O)[C@@H](CNC(=O)c1cc(C(=O)O)cc([Si](F)(C(C)(C)C)C(C)(C)C)c1)NC(=O)CN1CCN(CC(=O)O)CCN(CC(=O)O)CCN(CC(=O)O)CC1)C(=O)O)C(=O)O [[^nat/177Lu]Lu-DOTA-rhCCK-72, DOTA-D-Dap(SiFA-ipa)-D-γ-Glu-(PEG)7-B, metal not drawn]	89.3%	-2.32 ± 0.03	–
CCCC[C@@H](C(=O)N[C@@H](CC(=O)O)C(=O)N[C@@H](Cc1cccc2ccccc12)C(N)=O)N(C)C(=O)[C@H](Cc1c[nH]c2ccccc12)NC(=O)CCOCCOCCOCCOCCNC(=O)CC[C@@H](NC(=O)CCOCCOCCOCCOCCOCCOCCOCCOCCNC(=O)[C@@H](CNC(=O)c1ccc([Si](F)(C(C)(C)C)C(C)(C)C)cc1)NC(=O)CN1CCN(CC(=O)O)CCN(CC(=O)O)CCN(CC(=O)O)CC1)C(=O)O [[^nat/177Lu]Lu-DOTA-rhCCK-73, DOTA-D-Dap(p-SiFA)-(PEG)7-B, metal not drawn] ({DOTA}-[dDap](Benzoyl(4-SiFtBu2))[PEG8][d(γGlu)][PEG4]W[NMeNle]D[1Nal]-NH2)	90.4%	-1.02 ± 0.06	–
